PMC7954794, “Protein context shapes the specificity of SH3 domain-mediated interactions in vivo” (Nature Communications, 2021)

Columns and labels:
P130CAS/BCAR1 = experiment: Co-immunoprecipitation / Western blot NCK2-P130CAS/BCAR1 (Fig. S6C-D); assay type: cell-based, human; settings: Prey P130CAS, sheet FigS6A-D
Experimental: Human embryonic kidney 293T cells (HEK293T, ATCC:CRL-3216) were grown in Dulbecco’s Modified Eagle’s medium (DMEM) high glucose complemented with 10% fetal calf serum under 5% CO2 at 37 °C. Transient expression of cDNA in cells was performed by polyethylenimine (PEI, Millipore Sigma) transfections. Enrichment of phospho-dependent PPIs was done by treating HEK293T cells with the tyrosine phosphatase inhibitor pervanadate, freshly made by mixing 4 mM orthovanadate (Millipore Sigma) with 30% H2O2 (Millipore Sigma) in water in a 200:1 volume ratio.
(§1) For the experiments with HEK293T cells (1 × 10cm confluent dish for WB and 3 × 15cm for MS), cells were washed in ice-cold PBS and lysed in lysis buffer (20 mM Tris-HCl pH 7.4, 150 mM NaCl, 1 mM EDTA, 0.5% sodium deoxycholate (Millipore Sigma), 10 mM beta-glycerophosphate (Millipore Sigma), 10 mM sodium pyrophosphate (Millipore Sigma), 50 mM NaF (Millipore Sigma)). Protease inhibitors were added to the lysis buffer (P8340 (Millipore Sigma) for WB and PMSF 1 mM, aprotinin 10 µg/mL, leupeptin 10 µg/mL and pepstatin 10 µg/mL (all Millipore Sigma) for MS). Cells were scraped in the lysis buffer and lysed at 4 °C for 20 min and centrifuged for another 20 min at 20,000 g at 4 °C. Bait proteins from the supernatant were immunoprecipitated for 90 min at 4 °C with FLAG-M2 agarose beads (Millipore Sigma) and washed three times in the lysis buffer. Beads were then used for WB or MS experiments (see below).
(§2) Protein extracts and affinity-purified baits from yeast and human lysed cells were migrated on 10% polyacrylamide gels. The separated proteins were then transferred to nitrocellulose membranes. Validation of correct protein loading was done with ponceau staining of the membranes. Before the primary antibody incubations, membranes were blocked in 5% milk. Protein signals were detected on an Amersham Imager 600RGB (GE Healthcare) following the incubation of the membranes with the appropriate HRP-conjugated secondary antibodies and the Clarity Western ECL Substrate (Bio-Rad). The antibodies used in this study are M2-HRP (A8592, Sigma, 1/50,000), rabbit anti-FLAG (F7425, Sigma, 1/1000), PAK (SC-881, Santa Cruz, 1/200), p130cas/BCAR1 (SC-860, Santa Cruz, 1/200), actin (Cell Signaling Technology, 1/2000), anti-mouse HRP (Cell Signaling Technology, 1/10,000) and anti-rabbit HRP (Cell Signaling Technology, 1/10,000). The quantification of the WB signals was performed with the Amersham Imager 600 analysis software (GE Healthcare).
(§3) Supplementary Fig. 6| NCK2 SH3 shuffling affects its interactions with PAK1 and P130CAS/BCAR1 in cells but only slightly alters the availability of the SH3 binding pockets in vitro. A, Western blot analysis of NCK2 SH3-shuffled proteins interaction with PAK1. Each bait is N-terminally fused to a 3XFLAG tag. Loading corresponds to Ponceau staining of the nitrocellulose membrane. Experiment was performed in four replicates in HEK293T cells. B, Western blot quantification of PAK1 co-immunoprecipitation with NCK2.
(§4) Average log2 ratio relative to the WT protein is shown (NCK2mut/NCK2WT, WT NCK2 log2 ratio = 0). Ratios from replicates were compared t o WT NCK2 via pairwise ANOVA statistical […]
(§5) bars indicate the SD. C, Western blot analysis of NCK2 SH3-shuffled proteins association with SH2 target P130CAS/BCAR1. The experiment was performed in four replicates in HEK293T cells stimulated with the tyrosine phosphatase inhibitor pervanadate. D, Quantification of the Western blot signals of P130CAS co-immunoprecipitation with NCK2 as in B,. The four ratios of the replicates were compared to WT NCK2 via pairwise ANOVA statistical test (p -values: […]

PAK1 = experiment: Co-immunoprecipitation / Western blot NCK2-PAK1 (Fig. S6A-B); assay type: cell-based, human; settings: Prey PAK1, sheet FigS6A-D
Experimental: as §1, §2, §3, §4, §5
(1 picture or pasted object on this page, not shown here)

BOI2 = experiment: DHFR-PCA on solid medium, bait BOI2 (Fig. 1B); assay type: cell-based, Saccharomyces cerevisiae; settings: bait BOI2, label = prey; for medrep (log2 median colony size normalized to plate background, PCA score): 3-8 replicates
Excerpt: (§6) Supplement 41467_2021_21873_MOESM8_ESM.xlsx, sheet "Fig1B" | column: medsize; medrep; Ratio; Score

ABP1 = experiment: DHFR-PCA on solid medium, bait ABP1 (Fig. 1B); assay type: cell-based, Saccharomyces cerevisiae; settings: bait ABP1, label = prey; 2-4 replicates
Excerpt: as §6

[1] = tested on: 575 putative partners (preys) of 22 WT SH3-containing proteins; experiment: DHFR-PCA on solid medium, WT and SH3-deleted baits (Fig. 1B); assay type: cell-based, Saccharomyces cerevisiae; design: key to Score: 0: SH3-independent; 1: SH3-dependent PPIs; 2: SH3-inhibited PPIs; settings: for medrep (log2 median colony size normalized to plate background, PCA score): bait SLA1-3, DHFR-PCA, label = prey, Replicates 4 (2 for YCR009C, YDR388W, YIL033C); for Score: bait SLA1-3, label = prey
Excerpt: To assess the requirement of SH3 domains for PPIs in vivo, we first measured binary interactions between 22 WT SH3-containing proteins (Supplementary Fig. 1A) as baits and 575 putative partners from their interconnected signaling networks using the dihydrofolate reductase protein–fragment complementation assay (DHFR-PCA) in the budding yeast Saccharomyces cerevisiae. About 33% (202/607) of the PPIs detected were described before, mostly by direct methods (Supplementary Fig. 1B, C)[11]. We repeated the experiments with baits in which the SH3s were individually replaced with a flexible linker by genome editing (SH3 domain deletion/stuffing, Fig. 1A). The stuffer DNA sequence ([…]) codes for a small flexible poly-Gly with Ser peptide ([…]) that is inspired by previous experiments[12],[13]. About a third of the SH3-containing protein interactome is qualitatively or quantitatively SH3-dependent (171 PPIs out of 607, Fig. 1B and Supplementary Fig. 1B, C). We validated the vast majority of the quantitative changes in low-throughput experiments and excluded that this is simply due to changes in protein abundance in most cases (Supplementary Fig. 1D–G). SH3-binding motifs[14] are more frequent in the SH3-dependent PPI partners when compared to sequences from random proteins, SH3-independent PPI partners or PPI partners that are stronger or gained following SH3 deletions (p values = 1.5 × 10^−17, 0.0038 and 2.1 × 10^−08, respectively; Mann–Whitney test, one-tailed, Fig. 1C). The changes we measure are therefore enriched for PPIs that depend on the direct interactions of the domains with the PPI partners.
The complete list of strains, primers, and gRNAs used in this study can be found in Supplementary Tables 1–3. All constructed yeast strains were validated by polymerase chain reaction (PCR) and confirmed by Sanger sequencing of the locus of interest. Bait strains for the DHFR-PCA experiments were constructed as follows. The genes of interest were fused at their genomic 3′ end by replacing the stop codon with a linker ([…]), the DHFR F[1,2] followed by a smaller linker (GGGGS), a 1× FLAG tag ([…]) and the NATMX4 resistance cassette via homologous recombination (all amplified from pAG25-DHFR[1,2]-linker-FLAG). The set of 615 prey strains (DHFR F[3] fusions in the BY4742 background) were retrieved from the Yeast Protein Interactome Collection[43] with the exception of 73 that were reconstructed (Supplementary Tables 1 and 2). Knockout strains were taken from the yeast knockout collection except for ABP1, BEM1, BZZ1, and SLA1, which were reconstructed by replacing the ORFs with the NATMX4 resistance cassette by homologous recombination in the BY4741 background.
Yeast SH3 domain genomic sequences were replaced by CRISPR–Cas9 genome editing. Each SH3 domain (as defined by the SMART database V8.0 except for Ysc84 SH3 (as defined by PROSITE), see Source Data for all SH3 sequences and Supplementary Table 1 for primers used) was specifically targeted by one gRNA[46]. Yeast competent cells were co-transformed with a pCAS plasmid (Addgene plasmid 60847[47]) expressing both the gRNA of interest and Streptococcus pyogenes Cas9[46] and a donor DNA sequence (stuffer) with 60 bp homology arms surrounding the SH3 DNA sequence. The Stuffer DNA was either PCR amplified or digested from a plasmid. The stuffer DNA sequence ([…]) codes for a small flexible linker ([…]) inspired by protein linkers used in structural biology[12],[13]. This type of linker is frequently used for fusing proteins without affecting the structure of the linked proteins.
The overall DHFR-PCA pipeline is based on Tarassov et al.[43] and the procedures have also been published as a visualized protocol. The screens were performed with robotically manipulated pin tools (BM5-SC1, S&P Robotics Inc.). First, the preys were cherry-picked from 96-well plates to omnitrays in a 384 format on YPD + HPH solid media. […]

BZZ1-1 = experiment: DHFR-PCA on solid medium, bait BZZ1-1 (Fig. 1B); assay type: cell-based, Saccharomyces cerevisiae; settings: bait BZZ1-1, label = prey; 4 replicates
Excerpt: Supplement 41467_2021_21873_MOESM8_ESM.xlsx, sheet "Fig1B" | column: medsize; medrep; Score

BEM1-2 = experiment: DHFR-PCA on solid medium, bait BEM1-2 (Fig. 1B); assay type: cell-based, Saccharomyces cerevisiae; settings: bait BEM1-2, label = prey; 2-8 replicates
Excerpt: as §6

BUD14 = experiment: DHFR-PCA on solid medium, bait BUD14 (Fig. 1B); assay type: cell-based, Saccharomyces cerevisiae; settings: bait BUD14, label = prey; for medrep (log2 median colony size normalized to plate background, PCA score): 4 replicates; for Ratio (SH3-deleted/WT medrep): only significant differences showed, PPIs completely lost have a ratio of 0.1 and the gained PPIs 2.5
Excerpt: as §6

BEM1-1 = experiment: DHFR-PCA on solid medium, bait BEM1-1 (Fig. 1B); assay type: cell-based, Saccharomyces cerevisiae; settings: bait BEM1-1, label = prey; for medrep (log2 median colony size normalized to plate background, PCA score): 2-8 replicates
Excerpt: as §6

BBC1 = experiment: DHFR-PCA on solid medium, bait BBC1 (Fig. 1B); assay type: cell-based, Saccharomyces cerevisiae; settings: bait BBC1, label = prey; 2-4 replicates
Excerpt: as §6

BOI1 = experiment: DHFR-PCA on solid medium, bait BOI1 (Fig. 1B); assay type: cell-based, Saccharomyces cerevisiae; settings: bait BOI1, label = prey; for medrep (log2 median colony size normalized to plate background, PCA score): 3-8 replicates; for Ratio (SH3-deleted/WT medrep): only significant differences showed, PPIs completely lost have a ratio of 0.1 and the gained PPIs 2.5
Excerpt: as §6

[2] = average of R1-R4, SD in next column
[3] = only significant differences showed, PPIs completely lost have a ratio of 0.1 and the gained PPIs 2.5

NCK2 WT
Log2 ratio average (P130CAS/BCAR1; [2]): 0 | Log2 ratio on WT R1 (P130CAS/BCAR1; replicate R1): 0 | Ratio on WT R1 (P130CAS/BCAR1; replicate R1): 1 | Log2 ratio on WT R3 (P130CAS/BCAR1; replicate R3): 0 | Ratio on WT R3 (P130CAS/BCAR1; replicate R3): 1 | Log2 ratio on WT R4 (P130CAS/BCAR1; replicate R4): 0 | Ratio on WT R4 (P130CAS/BCAR1; replicate R4): 1 | Log2 ratio average (PAK1; [2]): 0 | Log2 ratio on WT R1 (PAK1; replicate R1): 0 | Ratio on WT R1 (PAK1; replicate R1): 1 | Log2 ratio on WT R3 (PAK1; replicate R3): 0 | Ratio on WT R3 (PAK1; replicate R3): 1 | Log2 ratio on WT R4 (PAK1; replicate R4): 0 | Ratio on WT R4 (PAK1; replicate R4): 1

YBR234C
medrep (log2 median colony size normalized to plate background, PCA score) (BOI2): 2.566 | medrep (log2 median colony size normalized to plate background, PCA score) (ABP1): 5.488 | medrep (log2 median colony size normalized to plate background, PCA score) [1]: 5.2 | Score [1]: 0 | medrep (log2 median colony size normalized to plate background, PCA score) (BZZ1-1): 4.45 | medrep (log2 median colony size normalized to plate background, PCA score) (BEM1-2): 2.151 | medrep (log2 median colony size normalized to plate background, PCA score) (BUD14): 1.638 | Ratio (SH3-deleted/WT medrep) (BUD14): 0.1 | medrep (log2 median colony size normalized to plate background, PCA score) (BEM1-1): 2.151 | medrep (log2 median colony size normalized to plate background, PCA score) (BBC1): 5.076

YCR088W (PWATAEYDYDAAEDNELTFVENDKIINIEFVDDDWWLGELEKDGSKGLFPSNYVSLGN)
medrep (log2 median colony size normalized to plate background, PCA score) (BOI2): 2.0061 | medrep (log2 median colony size normalized to plate background, PCA score) (ABP1): 5.528 | medrep (log2 median colony size normalized to plate background, PCA score) [1]: 4.931 | Score [1]: 0 | medrep (log2 median colony size normalized to plate background, PCA score) (BZZ1-1): 4.666 | medrep (log2 median colony size normalized to plate background, PCA score) (BEM1-2): 1.996 | medrep (log2 median colony size normalized to plate background, PCA score) (BEM1-1): 1.996 | Ratio (SH3-deleted/WT medrep) (BEM1-1; [3]): 0.1 | medrep (log2 median colony size normalized to plate background, PCA score) (BBC1): 4.833

YDL229W
medrep (log2 median colony size normalized to plate background, PCA score) (BOI2): 3.977 | medrep (log2 median colony size normalized to plate background, PCA score) (ABP1): 5.461 | medrep (log2 median colony size normalized to plate background, PCA score) [1]: 5.405 | Score [1]: 0 | medrep (log2 median colony size normalized to plate background, PCA score) (BZZ1-1): 4.468 | medrep (log2 median colony size normalized to plate background, PCA score) (BEM1-2): 3.594 | medrep (log2 median colony size normalized to plate background, PCA score) (BOI1): 2.407 | Ratio (SH3-deleted/WT medrep) (BOI1): 2.5 | medrep (log2 median colony size normalized to plate background, PCA score) (BUD14): 3.548 | medrep (log2 median colony size normalized to plate background, PCA score) (BEM1-1): 3.594 | medrep (log2 median colony size normalized to plate background, PCA score) (BBC1): 5.103

YER155C
medrep (log2 median colony size normalized to plate background, PCA score) (BOI2): 1.649 | Ratio (SH3-deleted/WT medrep) (BOI2; [3]): 0.1 | medrep (log2 median colony size normalized to plate background, PCA score) (BOI1): 1.496 | Ratio (SH3-deleted/WT medrep) (BOI1): 0.1 | medrep (log2 median colony size normalized to plate background, PCA score) (BUD14): 1.311 | Ratio (SH3-deleted/WT medrep) (BUD14): 0.1
